In patent US8273708B2, “Methods of treatment of ocular surface pathologies” (priority 2004, dated 2012):
“Also recorded” adds a separate entry of the source.

Legend:
Type in all cases: in vivo, rat
male Wistar rats [1] = experiment: Polynuclear eosinophil infiltration induced by benzalkonium chloride, Direct Red count in the venous plexus region of the sclera; conditions: for number of polynuclear eosinophils in the venous plexus region of the sclera after benzalkonium chloride: 10 μl of 0.5% benzalkonium chloride, after six hours
Text: Upper panel: histological images after Direct Red staining. Lower panel: eosinophil count in venous plexus of sclera, density per square mm (means±SD; n=8)
(§1) Animals: Four groups of male Wistar rats (Janvier, Le Genest St Isle, France), weighing 300-350 g were used: BAK+sodium carmellose, BAK+ML-7, PBS+sodium carmellose, PBS+ML-7; PBS and sodium carmellose being the solvents for benzalkonium (BAK) and ML-7, respectively.
(§2) ML-7 pretreatment: Animals received a local application of ML-7 (Sigma, France) 24 hours, 12 hours and 30 minutes before chemical induction of ocular inflammation. Thus, each eye was treated with 100 μg of ML-7 in 10 μl of eye drops (sodium carmellose 4 mg/0.4 ml) or with 10 μl of eye drops alone.
(§3) Inflammation induction: Thirty minutes after the third application of ML-7 or the eye drops alone, each eye was treated with 10 μl of 0.5% benzalkonium chloride (Sigma-Aldrich, Steinheim, Germany) in PBS or 10 μl of PBS alone. After 10 minutes, the eyes of all the rats were rinsed with 250 μl of sterile water.
(§4) Eye excision: Six hours after application of benzalkonium chloride or PBS, the animals were anesthetized with pentobarbital (80 mg/kg IP) (Ceva Santé Animale, Libourne, France), sacrificed by decapitation and the eyes were immediately excised to be frozen directly or after surface biotinylation (tight junction permeability test).
Measurement of polynuclear eosinophil infiltration: Polynuclear eosinophil leukocytes were specifically stained with Direct Red and counted in the venous plexus region of the sclera. […] Eosinophils, stained bright pink against a light background, were counted in the venous plexus region of the sclera under a Nikon Eclipse 90 i microscope equipped with a Nikon DXM1200F digital camera. The area of the zone to be counted was determined with Nikon Lucia image analysis software release 4.8 and counts were expressed as the number of eosinophils per mm^2. […]

male Wistar rats [2] = experiment: Ocular inflammation induced by corneal instillation of P48/80: total MPO activity in the whole eye; conditions: ML-7 1 mg/kg IP, two pretreatments the day before and one two hours before instillation
Procedure: FIG. 1: Experimental protocol for example 1.
The corneal irritation model which was used has been validated in the rat (Allansmith et al., Acta Ophtalmol, 1989; 192S: 145-153) and in the rabbit (Bucolo et al., J. Ocul. Pharmacol, 1993; 9: 321-332).
Animals: Three groups of eight male Wistar rats (200-250 g) housed in individual cages were used. Animals were given a standard diet (UAR, Villemoisson, Epinay sur Orge) and drinking water ad libitum.
The control eye was instilled with 10 μl of 1×PBS.
(§5) Assay of myeloperoxidase activity: The eyes were excised and homogenized in phosphate buffer with the aid of a polytron. They were then subjected to three freeze/thaw cycles (liquid nitrogen/37° C. water bath). After centrifugation at 10,000 rpm for 15 min at 4° C., the pellets were resuspended in HTAB buffer and sonicated for 10 sec. After a second centrifugation, MPO activity was assayed from the supernatant in a reaction buffer containing O-dianisidine hydrochloride and 0.0005% hydrogen peroxide. The change in absorbance at 460 nm was measured on a spectrophotometer.
They were sacrificed six hours after instillation and the eyes were excised in order to assay total myeloperoxidase (MPO) activity in the whole eye (FIG. 1).

male Wistar rats [3] = experiment: Ocular inflammation (neutrophil infiltration) induced by corneal instillation of benzalkonium chloride: total MPO activity in the eye
Procedure: FIG. 3: Experimental protocol for example 2. Animals received two pretreatments with ML-7 [1 mg/kg given by the intraperitoneal (IP) route] on the day before instillation of 0.1% BAK (in the morning and evening) and one pretreatment two hours before instillation. They were sacrificed six hours after rinsing and the eyes were excised in order to assay MPO activity.
The benzalkonium salt (BAK) corneal irritation model has been widely used in both in vitro and in vivo studies. The protocol is based on an in vitro study (Xu et al., 2000) adapted to in vivo conditions in the rat after preliminary tests to adjust times and concentrations.
Animals: Male Wistar rats (200-250 g) housed in individual cages were used. Animals were given a standard diet (UAR, Villemoisson, Epinay sur Orge) and drinking water ad libitum.
Inflammation induction: Inflammation was induced by instillation in the eye of 10 μl of 0.1% BAK solution (1 mg/ml). The control eye was instilled with 10 μl of 1×PBS. Ten minutes after instillation, the eyes were rinsed with 1 ml of sterile water.
as §5, with “in” for “from”
Experimental protocol: Animals received two pretreatments with ML-7 (1 mg/kg IP) on the day before instillation of 0.1% BAK (morning and evening) and one pretreatment two hours before instillation. They were sacrificed six hours after rinsing and the eyes were excised in order to assay total myeloperoxidase (MPO) activity (FIG. 3).

[4] = test system: corneal epithelial tight junctions; experiment: Corneal tight junction permeability by surface biotinylation after benzalkonium chloride
Text: Images obtained by fluorescence of the external corneal surface in the rat after ex vivo avidin-fluorescein biotinylation of the whole eye by avidin-fluorescein following cryosection (6 μm) (external side of cornea facing up)
as §1, §2, §3, §4
Measurement of tight junction permeability—Surface biotinylation: The permeability of tight junctions in the cornea was evaluated by biotinylation of surface proteins. The chosen biotinylation reagent is water-soluble and contains an aminocaproyl spacer group, which lowers steric hindrance during avidin coupling. Immediately after excision, the eyes were incubated for 30 minutes at room temperature with gentle stirring in a solution containing sodium biotinamidohexanecarboxylate and 3-sulfó-N-hydroxysuccinimide at 1 mg/mL, in PBS (Sigma-Aldrich, Steinheim, Germany). The eyes were then rinsed three times in PBS, embedded in protective tissue freezing medium (Tissue Tek® OCT compound, Sakura Finetek, Inc., CA, USA), frozen in liquid nitrogen and stored at −80° C. Six micrometer thick slices were prepared with a cryostat and fixed in cold acetone for 10 minutes. After drying, the slices were labelled for 30 minutes in the dark with avidin D-FITC (Vector Laboratories, Inc., Burlingame, Calif., USA) diluted 250-fold in PBS-Tween containing 1% BSA, then rinsed three times for 5 minutes in PBS-Tween, in the dark. The slides were then mounted in fluorescence medium (Cappel fluorostab embedding medium, MP Biomedicals, Inc., Aurora, Ohio, USA) and examined under a Nikon Eclipse 90 i fluorescence microscope equipped with a Nikon DXM1200F digital camera. The images were analyzed with Nikon Lucia image analysis software release 4.8. As no significant differences in corneal thickness were observed between the different experimental groups (102±10 μm, 110±9 μm, 115±13 μm and 124±8 μm for BAK+sodium carmellose, BAK+ML-7, PBS+sodium carmellose and PBS+ML-7 groups, respectively), the depth of fluorescence labelling reflects the permeability of external corneal epithelial tight junctions to the biotinylation reagent.

corneal thickness ([4]; BAK+ML-7 group) [μm]	corneal thickness ([4]; PBS+ML-7 group) [μm]	number of polynuclear eosinophils in the venous plexus region of the sclera after benzalkonium chloride (male Wistar rats [1])	number of polynuclear eosinophils in the venous plexus region of the sclera after benzalkonium chloride (male Wistar rats [1]; listed as BAK)	total MPO activity in the eye after benzalkonium chloride (male Wistar rats [3]; 10 μl of 0.1% BAK, rinsed after 10 minutes, after six hours) [U/g.protein]	increase in total MPO activity after benzalkonium chloride (male Wistar rats [3]; versus baseline 8.2±1.9 U/g.protein, after six hours) [%]	corneal thickness ([4]; BAK+sodium carmellose group) [μm]	Compound	effect of ML-7 on benzalkonium chloride-induced polynuclear eosinophil infiltration (male Wistar rats [1]; local application, 100 μg ML-7 in 10 μl eye drops, 24 hours, 12 hours and 30 minutes before BAK)	effect of ML-7 on the P48/80-induced increase in MPO activity (male Wistar rats [2])	effect of ML-7 on the benzalkonium chloride-induced increase in MPO activity (male Wistar rats [3]; ML-7 1 mg/kg IP, two pretreatments the day before and one two hours before instillation)	effect of ML-7 on the BAK-induced increase in diffusion and thickening of the fluorescent zone ([4]; local pretreatment, 100 μg ML-7 per eye, 24 hours, 12 hours and 30 minutes before BAK)	effect of benzalkonium chloride on corneal epithelial tight junctions (fluorescent penetration) ([4]; 10 μl of 0.5% benzalkonium chloride, after six hours)
110±9	124±8						O=S(=O)(c1cccc2c(I)cccc12)N1CCCNCC1 [ML-7, 1-(5-iodonaphthalene-1-sulfonyl)-1H-hexahydro-1,4-diazepine]	significantly inhibited	prevented; also recorded: inhibited	suppressed; also recorded: inhibited	suppressed	
		highly significant increase	highly significant	26.4±7.2	321	102±10	benzalkonium chloride					opening of corneal epithelial tight junctions
